Patent US12630563B2, “Macrocyclic RIP2-kinase inhibitors” (Oncodesign S.A., priority 2020, dated 2026)

Each compound was assayed against T1, recombinant hRIPK2 protein (kinase domain aa 1-299-His-tagged) (Homo sapiens, UniProt O43353) (assay: RIPK2 AlphaLISA assay (displacement of bead-bound CZC-8004 from hRIPK2)). Conditions: recombinant hRIPK2 kinase domain 10 nM, 2 h at 23° C.
T1 construct: kinase domain aa 1-299-His-tagged; purchased Life Technologies PR7829A
Format: binding
Summary of the method: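 His-tagged kinase domain (10 nM, as diluted) was mixed with compound (0.8% DMSO), acceptor beads bearing the probe CZC-8004 and Ni2+ donor beads. After 2 h at 23 °C, AlphaLISA signal was read. Loss of signal reflects displacement of the probe from RIPK2.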

T1 sequence (O43353 1-299): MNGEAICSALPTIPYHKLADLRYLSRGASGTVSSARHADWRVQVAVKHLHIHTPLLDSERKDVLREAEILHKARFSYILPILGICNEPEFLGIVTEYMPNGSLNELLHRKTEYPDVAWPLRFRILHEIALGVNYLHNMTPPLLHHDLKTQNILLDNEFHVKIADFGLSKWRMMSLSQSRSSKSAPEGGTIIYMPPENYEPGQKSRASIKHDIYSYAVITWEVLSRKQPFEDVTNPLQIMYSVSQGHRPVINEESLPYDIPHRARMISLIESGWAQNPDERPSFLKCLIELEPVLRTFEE

Row | Compound | IC50
1 | CO[C@@H]1C[C@H]2COc3ccn4ncc(c4n3)-c3cc(cc(-c4cnn(CCO)c4)c3)NCCN2C1=O [Example 93, (12R,14S)-4-[1-(2-hydroxyethyl)-1H-pyrazol-4-yl]-12-methoxy-16-oxa-7,10,20,21,24-pentaazapentacyclo[15.5.2.1^2,6.0^1°,^14.0^2°,^23]pentacosa-1(23),2,4,6(25),17(24),18,21-heptaen-11-one] | 0.1 to 11 µM
2 | CO[C@@H]1C[C@H]2COc3ccn4ncc(c4n3)-c3cc(cc(OCc4cccnc4)c3)NCCN2C1=O [Example 44, (12R,14S)-12-methoxy-4-(pyridin-3-ylmethoxy)-16-oxa-7,10,20,21,24-pentaazapentacyclo[15.5.2.1^2,6.0^1°,^14.0^2°,^23]pentacosa-1 (23),2(25),3,5,17(24),18,21-heptaen-11-one] | 0.01 to 0.1 µM
3 | CO[C@@H]1C[C@H]2COc3ccn4ncc(c4n3)-c3cc(cc(OC(C)C)c3)NCCN2C1=O [Example 8, (12R,14S)-12-methoxy-4-(propan-2-yloxy)-16-oxa-7,10,20,21,24-pentaazapentacyclo[15.5.2.1^2,6.0^10,^14.0^20,^23]pentacosa-1(23),2,4,6(25),17(24),18,21-heptaen-11-one] | < 0.01 µM
4 | COCCO[C@@H]1C[C@H]2COc3nc4c(cnn4cc3OCCO)-c3cc(cc(OC)c3)NCCN2C1=O [Example 139, (12R,14S)-18-(2-hydroxyethoxy)-4-methoxy-12-(2-methoxyethoxy)-16-oxa-7,10,20,21,24-pentaazapentacyclo[15.5.2.1^2,6.0^1°,^14.0^2°,^23]pentacosa-1(23),2,4,6(25),17(24),18,21-heptaen-11-one] | < 0.01 µM
5 | CCc1cc2cc(c1)-c1cnn3ccc(nc13)OC[C@@H]1C[C@@H](OC)C(=O)N1CCN2 [Example 21, (12R,14S)-4-ethyl-12-methoxy-16-oxa-7,10,20,21,24-pentaazapentacyclo[15.5.2.1^2,6.0^10,^14.0^20,^23]pentacosa-1(23),2,4,6(25),17(24),18,21-heptaen-11-one] | 0.01 to 0.1 µM
6 | COCCO[C@@H]1C[C@H]2COc3nc4c(cnn4cc3OCCN(C)C)-c3cc(cc(OC)c3)NCCN2C1=O [Example 126, (12R,14S)-18-[2-(dimethylamino)ethoxy]-4-methoxy-12-(2-methoxyethoxy)-16-oxa-7,10,20,21,24-pentaazapentacyclo[15.5.2. 1^2,6.0^10,^14.0^20,^23]pentacosa-1(23),2,4,6(25),17(24),18,21-heptaen-11-one] | < 0.01 µM
7 | COCCO[C@@H]1C[C@H]2COc3nc4c(cnn4cc3OC)-c3cc(F)cc(c3)NCCN2C1=O [Example 129, (12R,14S)-4-fluoro-18-methoxy-12-(2-methoxyethoxy)-16-oxa-7,10,20,21,24-pentaazapentacyclo[15.5.2.1^2,6.0^10,^14.0^20,^23]pentacosa-1(23),2,4,6(25),17(24),18,21-heptaen-11-one] | < 0.01 µM
8 | COCCO[C@@H]1C[C@H]2COc3nc4c(cnn4cc3OC)-c3cc(C#N)cc(c3)NCCN2C1=O [Example 145, (12R,14S)-18-methoxy-12-(2-methoxyethoxy)-11-oxo-16-oxa-7,10,20,21,24-pentaazapentacyclo[15.5.2.1^2,6.0^10,^14.0^20,^23]pentacosa-1(23),2,4,6(25),17(24),18,21-heptaene-4-carbonitrile] | < 0.01 µM
9 | CO[C@@H]1C[C@H]2COc3ccn4ncc(c4n3)-c3cc(cc(-n4nccc4C)c3)NCCN2C1=O [Example 43, (12R,14S)-12-methoxy-4-(5-methyl-1H-pyrazol-1-yl)-16-oxa-7,10,20,21,24-pentaazapentacyclo[15.5.2.1^2,6.0^10,^14.0^20,^23]pentacosa-1(23),2(25),3,5,17(24),18,21-heptaen-11-one] | < 0.01 µM
10 | CO[C@@H]1C[C@H]2C(C)Oc3ccn4ncc(c4n3)-c3cc(F)cc(c3)NCCN2C1=O (relative stereo) [Example 103, E1-(12R,14S,15R*)-4-fluoro-12-methoxy-15-methyl-16-oxa-7,10,20,21,24-pentaazapentacyclo[15.5.2.1^2,6.0^10,^14.0^20,^23]pentacosa-1(23),2,4,6(25),17(24),18,21-heptaen-11-one] | 0.01 to 0.1 µM
11 | CCOc1cc2cc(c1)-c1cnn3ccc(nc13)OC[C@@H]1C[C@@H](OCC)C(=O)N1CCN2 [Example 28, (12R,14S)-4,12-diethoxy-16-oxa-7,10,20,21,24-pentaazapentacyclo[15.5.2.1^2,6.0^10,^14.0^20,^23]pentacosa-1(23),2(25),3,5,17(24),18,21-heptaen-11-one] | < 0.01 µM

Next, values leading:

Row | IC50 | Compound
12 | < 0.01 µM | COc1cc2cc(c1)-c1cnn3cc(OC)c(nc13)OC[C@@H]1C[C@@H](OC(C)C)C(=O)N1CCN2 [Example 147, (12R,14S)-4,18-dimethoxy-12-(propan-2-yloxy)-16-oxa-7,10,20,21,24-pentaazapentacyclo[15.5.2. 1^2,6.0^10,^14.0^20,^23]pentacosa-1(23),2,4,6(25),17(24),18, 21-heptaen-11-one]
13 | < 0.01 µM | C#Cc1cc2cc(c1)-c1cnn3ccc(nc13)OC[C@@H]1C[C@@H](OCC)C(=O)N1CCN2 [Example 72, (12R,14S)-12-ethoxy-4-ethynyl-16-oxa-7,10,20,21,24-pentaazapentacyclo[15.5. 2.1^2,6.0^10,^14.0^20,^23]pentacosa-21-heptaen-11-one]
14 | < 0.01 µM | COCCc1cn2ncc3c2nc1OC[C@@H]1C[C@@H](OC)C(=O)N1CCNc1cc-3cc(-n2cccn2)c1 [Example 78, (12R,14S)-12-methoxy-18-(2-methoxyethyl)-4-(1H-pyrazol-1-yl)-16-oxa-7,10,20,21,24-pentaazapentacyclo[15.5. 2.1^2,6.0^10,^14.0^20,^23]pentacosa-1(23),2(25),3,5,17(24),18, 21-heptaen-11-one]
15 | < 0.01 µM | COc1cc2cc(c1F)NCCN1C(=O)[C@H](OC)C[C@H]1COc1ccn3ncc-2c3n1 [Example 27, (12R,14S)-5-fluoro-4,12-dimethoxy-16-oxa-7,10,20,21,24-pentaazapentacyclo[15.5.2.1^2,6.0^10,^14.0^20,^23]pentacosa-1(23),2,4,6(25),17(24),18,21-heptaen-11-one]
16 | < 0.01 µM | CO[C@@H]1C[C@H]2COc3ccn4ncc(c4n3)-c3cc(F)c(F)c(c3)NCCN2C1=O [Example 29, (12R,14S)-4,5-difluoro-12-methoxy-16-oxa-7,10,20,21,24-pentaazapentacyclo[15.5.2.1^2,6.0^10,^14.0^20,^23]pentacosa-1(23),2(25),3,5,17(24),18,21-heptaen-11-one]
17 | < 0.01 µM | COc1cc2cc(c1)-c1cnn3ccc(nc13)OC[C@@H]1C[C@@H](O)C(=O)N1CCN2 [Example 90, (12R,14S)-12-hydroxy-4-methoxy-16-oxa-7,10,20,21,24-pentaazapentacyclo[15.5.2.1^2,6.0^1°,^14.0^2°,^23]pentacosa-1 (23),2,4,6(25),17(24),18,21-heptaen-11-one]
18 | < 0.01 µM | CCO[C@@H]1C[C@H]2COc3ccn4ncc(c4n3)-c3cc(O)cc(c3)NCCN2C1=O [Example 96, (12R,14S)-12-ethoxy-4-hydroxy-16-oxa-7,10,20,21,24-pentaazapentacyclo[15.5.2.1^2,6.0^1°,^14.0^2°,^23]pentacosa-1(23),2(25),3,5,17(24),18,21-heptaen-11-one]
19 | < 0.01 µM | COc1cc2cc(c1)-c1cnn3cc(OC)c(nc13)OC[C@@H]1C[C@@H](OCC3COC3)C(=O)N1CCN2 [Example 134, (12R,14S)-4,18-dimethoxy-12-(oxetan-3-ylmethoxy)-16-oxa-7,10,20,21,24-pentaazapentacyclo[15.5.2. 1^2,6.0^10,^14.0^20,^23]pentacosa-1(23),2,4,6(25),17(24),18, 21-heptaen-11-one]
20 | < 0.01 µM | COCCO[C@@H]1C[C@H]2COc3ccn4ncc(c4n3)-c3cc(C#N)cc(c3)NCCN2C1=O (racemic) [Example 114, (12R,14S)-12-(2-methoxyethoxy)-11-oxo-16-oxa-7,10,20,21,24-pentaazapentacyclo[15.5.2.1^2,6.0^10,^14.0^20,^23]pentacosa-1(23),2,4,6(25),17(24),18,21-heptaene-4-carbonitrile]
21 | < 0.01 µM | CO[C@@H]1CC2(C)COc3ccn4ncc(c4n3)-c3cc(F)cc(c3)NCCN2C1=O (stereo partly shown) [Example 40]
22 | < 0.01 µM | COCCO[C@@H]1C[C@H]2COc3ccn4ncc(c4n3)-c3cc(Cl)cc(c3)NCCN2C1=O (racemic) [Example 116, (12R,14S)-4-chloro-12-(2-methoxyethoxy)-16-oxa-7,10,20,21,24-pentaazapentacyclo[15.5.2.1^2,6.0^10,^14.0^20,^23]pentacosa-1(23),2,4,6(25),17(24),18,21-heptaen-11-one]
23 | < 0.01 µM | [2H]C([2H])([2H])Oc1cc2cc(c1)-c1cnn3ccc(nc13)OC[C@@H]1C[C@@H](OCC)C(=O)N1CCN2 [Example 94, (12R,14S)-12-ethoxy-4-(^2H3)methoxy-16-oxa-7,10,20,21,24-pentaazapentacyclo[15.5.2.1^2,6.0^10,^14.0^20,^23]pentacosa-1(23),2(25),3,5,17(24),18,21-heptaen-11-one]
24 | < 0.01 µM | COc1cc2cc(c1)-c1cnn3ccc(nc13)OC[C@@H]1C[C@@H](OC(C)C)C(=O)N1CCN2 [Example 16, (12R,14S)-4-methoxy-12-(propan-2-yloxy)-16-oxa-7,10,20,21,24-pentaazapentacyclo[15.5.2.1^2,6.0^10,^14.0^20,^23]pentacosa-1(23),2,4,6(25),17(24),18,21-heptaen-11-one]
25 | < 0.01 µM | CC(C)O[C@@H]1C[C@H]2COc3ccn4ncc(c4n3)-c3cc(F)cc(c3)NCCN2C1=O [Example 9, (12R,14S)-4-fluoro-12-(propan-2-yloxy)-16-oxa-7,10,20,21,24-pentaazapentacyclo[15.5.2.1^2,6.0^10,^14.0^20,^23]pentacosa-1(23),2,4,6(25),17(24),18,21-heptaen-11-one]
